Laboratory results as given in patent US20220313698A1, “MODULATORS OF CYSTIC FIBROSIS TRANSMEMBRANE CONDUCTANCE REGULATOR” (Vertex Pharmaceuticals Incorporated, priority 2019, published 2022).
Where “and” joins values, the source holds several entries; their conditions need not be identical. Identical values can stand only once. Like-named read-outs stand apart in the source and are kept apart here.

How the values were obtained:
[1] = snar bond, 15-membered ring
[2] = target: T1, CFTR-mediated chloride transport (Homo sapiens, UniProt P13569); assay: Corrector Assay A - membrane potential dye assay (enteroid cells); conditions: for Corrector Assay A % activity: % of chloride transport of triple combination control (1 μM (14S)-dispiro macrocycle + 3 μM tezacaftor + 300 nM ivacaftor); for EC50: read-out: Corrector Assay A EC50, human intestinal enteroid cells, 18-24 h incubation, acute 10 μM forskolin + 300 nM ivacaftor
[3] = snar bond, DMSO, 2 steps
[4] = target: T1, CFTR-mediated chloride transport; assay: Corrector Assay B - membrane potential dye assay (enteroid cells); conditions: for Corrector Assay B % activity: % of chloride transport of triple combination control (3 μM Compound A + 3 μM tezacaftor + 300 nM ivacaftor); for EC50: read-out: Corrector Assay B EC50, human intestinal enteroid cells, 18-24 h incubation, acute 10 μM forskolin + 300 nM ivacaftor;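 on all read-outs here: methyl oxonol membrane potential fluorescence followed over 15 min after switching to chloride-free buffer with forskolin, 100 µM IBMX and ivacaftor, in presence of CaCC blockers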
Protocol: Base medium (ADF+++) consisted of Advanced DMEM/Ham's F12, 2 mM Glutamax, 10 mM HEPES, 1 μg/ml penicillin/streptomycin.
Intestinal enteroid maintenance medium (IEMM) consisted of ADF+++, 1×B27 supplement, 1×N2 supplement, 1.25 mM N-acetyl cysteine, 10 mM Nicotinamide, 50 ng/mL hEGF, 10 nM Gastrin, 1 μg/mL hR-spondin-1, 100 ng/mL hNoggin, TGF-b type 1 inhibitor A-83-01, 100 μg/mL Primocin, 10 μM P38 MAPK inhibitor SB202190.
Bath 1 Buffer consisted of 1 mM MgCl2, 160 mM NaCl, 4.5 mM KCl, 10 mM HEPES, 10 mM Glucose, 2 mM CaCl2).
Chloride Free Buffer consisted of 1 mM Magnesium Gluconate, 2 mM Calcium Gluconate, 4.5 mM Potassium Gluconate, 160 mM Sodium Gluconate, 10 mM HEPES, 10 mM Glucose.
Bath 1 Dye Solution consisted of Bath 1 Buffer, 0.04% Pluronic F127, 20 μM Methyl Oxonol, 30 μM CaCCinh-A01, 30 μM Chicago Sky Blue.
Chloride Free Dye Solution consisted of Chloride Free Buffer, 0.04% Pluronic F127, 20 μM Methyl Oxonol, 30 μM CaCCinh-A01, 30 μM Chicago Sky Blue.
Chloride Free Dye Stimulation Solution consisted of Chloride Free Dye Solution, 10 μM forskolin, 100 μM IBMX, and 300 nM Ivacaftor.
Cells were recovered in cell recovery solution, collected by centrifugation at 650 rpm for 5 min at 4° C., resuspended in TryPLE and incubated for 5 min at 37° C. Cells were then collected by centrifugation at 650 rpm for 5 min at 4° C. and resuspended in IEMM containing 10 μM ROCK inhibitor (RI). The cell suspension was passed through a 40 μm cell strainer and resuspended at 1×10^6 cells/mL in IEMM containing 10 μM RI. Cells were seeded at 5000 cells/well into multi-well plates and incubated for overnight at 37° C., 95% humidity and 5% CO2 prior to assay.
Briefly, cells were washed 5 times in Bath 1 Buffer. Bath 1 Dye Solution was added and the cells were incubated for 25 min at room temperature. Following dye incubation, cells were washed 3 times in Chloride Free Dye Solution. Chloride transport was initiated by addition of Chloride Free Dye Stimulation Solution and the fluorescence signal was read for 15 min. The CFTR-mediated chloride transport for each condition was determined from the AUC of the fluorescence response to acute forskolin and 300 nM N-[2,4-bis(1,1-dimethylethyl)-5-hydroxyphenyl]-1,4-dihydro-4-oxoquinoline-3-carboxamide stimulation. Chloride transport was then expressed as a percentage of the chloride transport following treatment with 3 μM Compound A, 3 μM (R)-1-(2,2-difluorobenzo[d][1,3]dioxol-5-yl)-N-(1-(2,3-dihydroxypropyl)-6-fluoro-2-(1-hydroxy-2-methylpropan-2-yl)-1H-indol-5-yl)cyclopropanecarboxamide and 300 nM acute N-[2,4-bis(1,1-dimethylethyl)-5-hydroxyphenyl]-1,4-dihydro-4-oxoquinoline-3-carboxamide triple combination control (% Activity).

Structure (SMILES): C=CC1CC[C@@H]2CN(c3nc(C(C)(C)C)ccc3C(=O)NS(=O)(=O)c3cccc(n3)N1)C(C)(C)C2 (some centres unmarked)
- ring closure, isolated yield ([1]; from C=CC(CC[C@@H]1CN(C(=O)OC(C)(C)C)C(C)(C)C1)Nc1cccc(S(=O)(=O)NC(=O)c2ccc(C(C)(C)C)nc2F)n1, K2CO3, NMP, 159.0 mM, 150.0 °C, 2 steps): 22% and 25%

Structure (SMILES): CC(C)(C)CC1CNc2cccc(n2)S(=O)(=O)NC(=O)c2ccc(-n3ccc(OCCC4C5(CC5)C45CC5)n3)nc2N2C[C@@H](C1)CC2(C)C (some centres unmarked)
- ring closure, isolated yield ([1]; from CC(C)(C)CC(CNc1cccc(S(=O)(=O)NC(=O)c2ccc(-n3ccc(OCCC4C5(CC5)C45CC5)n3)nc2Cl)n1)C[C@@H]1CNC(C)(C)C1, K2CO3, DMSO, 73.6 mM, 120.0 °C, 20.0 h): 44%

Structure (SMILES): CC(C)(C)CC1CNc2cccc(n2)S(=O)(=O)NC(=O)c2ccc(C(C)(C)C)nc2N2C[C@@H](C1)CC2(C)C (some centres unmarked)
- ring closure, isolated yield ([1]; from CC(C)(C)CC(CNc1cccc(S(=O)(=O)NC(=O)c2ccc(C(C)(C)C)nc2F)n1)C[C@@H]1CNC(C)(C)C1, K2CO3, DMSO, 94.7 mM, 120.0 °C, 24.0 h): 27%

Structure (SMILES): CC(C)(C)c1ccc2c(n1)N1C[C@@H](CCC(c3cc(Br)ccn3)Nc3cccc(n3)S(=O)(=O)NC2=O)CC1(C)C (some centres unmarked)
- ring closure, isolated yield ([1]; from CC(C)(C)OC(=O)N1C[C@@H](CCC(Nc2cccc(S(=O)(=O)NC(=O)c3ccc(C(C)(C)C)nc3F)n2)c2cc(Br)ccn2)CC1(C)C, K2CO3, NMP, 77.8 mM, 150.0 °C, 2 steps): 21%

Structure (SMILES): CC(C)(C)c1ccnc(C2CC[C@@H]3CN(c4cc(C(C)(C)C)c(Br)cc4C(=O)NS(=O)(=O)c4cccc(n4)N2)C(C)(C)C3)c1 (some centres unmarked)
- ring closure, isolated yield ([1]; from CC1(C)C[C@H](CCC(Nc2cccc(S(=O)(=O)NC(=O)c3cc(Br)c(C(C)(C)C)cc3F)n2)c2cc(C(C)(C)C)ccn2)CN1, Cs2CO3, DMSO, 58.3 mM, 150.0 °C, 96.0 h): 17%

Structure (SMILES): CC(C)(C)c1ccnc(C2CC[C@@H]3CN(c4nc(-n5ccc(OCCC6C7(CC7)C67CC7)n5)ccc4C(=O)NS(=O)(=O)c4cccc(n4)N2)C(C)(C)C3)c1 (some centres unmarked)
- ring closure, isolated yield ([1]; from CC(C)(C)OC(=O)N1C[C@@H](CCC(Nc2cccc(S(=O)(=O)NC(=O)c3ccc(-n4ccc(OCCC5C6(CC6)C56CC6)n4)nc3Cl)n2)c2cc(C(C)(C)C)ccn2)CC1(C)C, K2CO3, NMP, 48.8 mM, 140.0 °C, 2 steps): 44.5%

Structure (SMILES): CC(C)(C)c1ccnc(C2CC[C@@H]3CN(c4nc(C(C)(C)C)c(Br)cc4C(=O)NS(=O)(=O)c4cccc(n4)N2)C(C)(C)C3)c1 (some centres unmarked)
- ring closure, isolated yield ([1]; from CC(C)(C)OC(=O)N1C[C@@H](CCC(Nc2cccc(S(=O)(=O)NC(=O)c3cc(Br)c(C(C)(C)C)nc3Cl)n2)c2cc(C(C)(C)C)ccn2)CC1(C)C, K2CO3, NMP, 61.5 mM, 160.0 °C, 2 steps): 56%

Structure (SMILES): CC(C)(C)c1ccnc(C2CC[C@H]3CCCN(C3)c3nc(C(C)(C)C)ccc3C(=O)NS(=O)(=O)c3cccc(n3)N2)c1 (some centres unmarked)
- ring closure, isolated yield ([1]; from CC(C)(C)c1ccnc(C(CC[C@H]2CCCNC2)Nc2cccc(S(=O)(=O)NC(=O)c3ccc(C(C)(C)C)nc3F)n2)c1, K2CO3, DMSO, 69.4 mM, 120.0 °C, 24.0 h): 17%

Structure (SMILES): CC(C)(C)c1ccnc(C2CC[C@H]3CCN(C3)c3nc(C(C)(C)C)ccc3C(=O)NS(=O)(=O)c3cccc(n3)N2)c1 (some centres unmarked)
- ring closure, isolated yield ([1]; from CC(C)(C)c1ccnc(C(CC[C@H]2CCNC2)Nc2cccc(S(=O)(=O)NC(=O)c3ccc(C(C)(C)C)nc3F)n2)c1, K2CO3, DMSO, 77.9 mM, 120.0 °C, 2.0 h): 54%

Structure (SMILES): CC1(C)CC2CN1c1nc(-n3ccc(OCCC4C5(CC5)C45CC5)n3)ccc1C(=O)NS(=O)(=O)c1cccc(n1)NCCC2CCc1ccccc1 (centres unmarked)
- ring closure, isolated yield ([1]; from CC1(C)CC(C(CCNc2cccc(S(=O)(=O)NC(=O)c3ccc(-n4ccc(OCCC5C6(CC6)C56CC6)n4)nc3Cl)n2)CCc2ccccc2)CN1, K2CO3, NMP, 64.5 mM, 150.0 °C, 20.0 h, 2 steps): 61%

Structure (SMILES): CC1(C)C[C@@H]2CCC(c3ccccn3)Nc3cccc(n3)S(=O)(=O)NC(=O)c3ccc(-n4ccc(OCCC5(C(F)(F)F)CC5)n4)nc3N1C2 (some centres unmarked)
- ring closure, isolated yield ([1]; from CC1(C)C[C@H](CCC(Nc2cccc(S(=O)(=O)NC(=O)c3ccc(-n4ccc(OCCC5(C(F)(F)F)CC5)n4)nc3Cl)n2)c2ccccn2)CN1, K2CO3/3A MS, DMSO, 26.1 mM, 155.0 °C, 18.0 h, 2 steps): 38%

Structure (SMILES): CC1(C)C[C@@H]2CCC(c3cncnc3)Nc3cccc(n3)S(=O)(=O)NC(=O)c3ccc(-n4ccc(OCCC5(C(F)(F)F)CC5)n4)nc3N1C2 (some centres unmarked)
- ring closure, isolated yield ([1]; from CC1(C)C[C@H](CCC(Nc2cccc(S(=O)(=O)NC(=O)c3ccc(-n4ccc(OCCC5(C(F)(F)F)CC5)n4)nc3Cl)n2)c2cncnc2)CN1, K2CO3/3A MS, DMSO, 49.2 mM, 155.0 °C, 18.0 h): 28%

Structure (SMILES): CC1(C)C[C@@H]2CCCNc3cccc(n3)S(=O)(=O)NC(=O)c3ccc(-n4ccc(OCCC5C6(CC6)C56CC6)n4)cc3N1C2
- ring closure, isolated yield ([1]; from CC1(C)C[C@H](CCCNc2cccc(S(=O)(=O)NC(=O)c3ccc(-n4ccc(OCCC5C6(CC6)C56CC6)n4)cc3F)n2)CN1, Cs2CO3, DMSO, 67.0 mM, 150.0 °C, 96.0 h): 29%

Structure (SMILES): CC1(C)C[C@@H]2CCNCc3cccc(n3)S(=O)(=O)NC(=O)c3ccc(-n4ccc(OCCC5C6(CC6)C56CC6)n4)nc3N1C2
- ring closure, isolated yield ([1]; from CC1(C)C[C@H](CCNCc2cccc(S(=O)(=O)NC(=O)c3ccc(-n4ccc(OCCC5C6(CC6)C56CC6)n4)nc3Cl)n2)CN1, K2CO3, DMSO, 57.3 mM, 120.0 °C, 24.0 h): 3%

Structure (SMILES): CC1(C)CC(C2CC[C@@H]3CN(c4nc(C(C)(C)C)ccc4C(=O)NS(=O)(=O)c4cccc(n4)N2)C(C)(C)C3)CC(C)(C)O1 (mixture of isomers)
- ring closure, isolated yield ([1]; from 6-tert-Butyl-N-[[6-[[3-[(3S)-5,5-dimethylpyrrolidin-3-yl]-1-(2,2,6,6-tetramethyltetrahydropyran-4-yl)propyl]amino]-2-pyridyl]sulfonyl]-2-fluoro-pyridine-3-carboxamide (Trifluoroacetic Acid (1)), K2CO3, DMF, 80.7 mM, 140.0 °C): 48%

Structure (SMILES): CC(C)(C)c1ncc2c(n1)N1C[C@@H](CCCNc3cccc(n3)S(=O)(=O)NC2=O)CC1(C)C [Compound 11, (14S)-8-tert-butyl-12,12-dimethyl-2λ^6-thia-3,7,9,11,18,23-hexaazatetracyclo[17.3.1.111,14.05,10]tetracosa-1(22),5,7,9,19(23),20-hexaene-2,2,4-trione]
- ring closure, isolated yield ([1]; from 2-tert-Butyl-4-chloro-N-[[6-[3-[(3S)-5,5-dimethylpyrrolidin-3-yl]propylamino]-2-pyridyl]sulfonyl]pyrimidine-5-carboxamide (dihydrochloride salt), K2CO3/CsF, NMP, 123.1 mM, 150.0 °C): 13%
- Corrector Assay A % activity [2]: ++ (++ is 30-60%)
- EC50 [2]: 1000 to 3000 nM

Structure (SMILES): CC(C)(C)c1ccc2c(n1)N1C[C@@H](CCCNc3cccc(n3)S(=O)(=O)NC2=O)CC1(C)C [Compound 296, (14S)-8-tert-Butyl-12,12-dimethyl-2λ^6-thia-3,9,11,18,23-pentaazatetracyclo[17.3.1.111,14.05,10]tetracosa-1(23),5(10),6,8,19,21-hexaene-2,2,4-trione]
- ring closure, yield after HPLC ([3]; from CC1(C)C[C@H](CCCNc2cccc(S(=O)(=O)NC(=O)c3ccc(C(C)(C)C)nc3Cl)n2)CN1, 15-membered ring, K2CO3/3A MS, 53.4 mM, 165.0 °C, 60.0 h): 43%
- Corrector Assay A % activity [2]: +++ (+++ is >60%)
- EC50 [2]: < 1000 nM
- Corrector Assay B % activity [4]: +++ (+++ is >60%)
- EC50 [4]: < 1000 nM

Structure (SMILES): CC1(C)C[C@@H]2CCCN(Cc3nn[nH]n3)c3cccc(n3)S(=O)(=O)NC(=O)c3ccc(-n4ccc(OCCC5(C(F)(F)F)CC5)n4)nc3N1C2 [Compound 372, (14S)-12,12-Dimethyl-18-[(2H-1,2,3,4-tetrazol-5-yl)methyl]-8-(3-{2-[1-(trifluoromethyl)cyclopropyl]ethoxy}-1H-pyrazol-1-yl)-2λ^6-thia-3,9,11,18,23-pentaazatetracyclo[17.3.1.111,14.05,10]tetracosa-1(23),5(10),6,8,19,21-hexaene-2,2,4-trione]
- ring closure, yield after HPLC ([3]; from CC1(C)C[C@H](CCCN(Cc2nn[nH]n2)c2cccc(S(=O)(=O)NC(=O)c3ccc(-n4ccc(OCCC5(C(F)(F)F)CC5)n4)nc3Cl)n2)CN1, 15-membered ring, K2CO3/3A MS, 25.8 mM, 155.0 °C, 18.0 h): 18%
- Corrector Assay B % activity [4]: +++ (+++ is >60%)
- EC50 [4]: 1000 to 3000 nM

Structure (SMILES): CC1(C)C[C@@H]2CCCn3nnnc3CNc3cccc(n3)S(=O)(=O)NC(=O)c3ccc(-n4ccc(OCCC5(C(F)(F)F)CC5)n4)nc3N1C2 [Compound 380, (12S)-14,14-dimethyl-18-(3-{2-[1-(trifluoromethyl)cyclopropyl]ethoxy}-1H-pyrazol-1-yl)-24λ^6-thia-2,5,6,7,8,15,17,23,29-noNaazapentacyclo [23.3.1.112,15.04,8.016,21]triaconta-1(28),4,6,16,18,20,25(29),26-octaene-22,24,24-trione]
- ring closure, yield after HPLC ([3]; from CC1(C)C[C@H](CCCn2nnnc2CNc2cccc(S(=O)(=O)NC(=O)c3ccc(-n4ccc(OCCC5(C(F)(F)F)CC5)n4)nc3Cl)n2)CN1, 18-membered ring, K2CO3/3A MS, 35.1 mM, 155.0 °C, 16.0 h): 41%
- Corrector Assay B % activity [4]: +++ (+++ is >60%)
- EC50 [4]: < 1000 nM

Structure (SMILES): CC1(C)C[C@@H]2CCCN(CC(O)CO)c3cccc(n3)S(=O)(=O)NC(=O)c3ccc(-n4ccc(OCCC5(C(F)(F)F)CC5)n4)nc3N1C2 (stereo partly drawn) [Compound 382, (14S)-18-(2,3-dihydroxypropyl)-12,12-dimethyl-8-(3-{2-[1-(trifluoromethyl)cyclopropyl]ethoxy}-1H-pyrazol-1-yl)-2λ^6-thia-3,9,11,18,23-pentaazatetracyclo [17.3.1.111,14.05,10]tetracosa-1(22),5,7,9,19(23),20-hexaene-2,2,4-trione]
- ring closure, yield after HPLC ([3]; from CC(C)(C)OC(=O)N1C[C@@H](CCCN(CC2COC(C)(C)O2)c2cccc(S(=O)(=O)NC(=O)c3ccc(-n4ccc(OCCC5(C(F)(F)F)CC5)n4)nc3Cl)n2)CC1(C)C, 15-membered ring, K2CO3/4A MS, 38.5 mM, 140.0 °C): 59%
- Corrector Assay B % activity [4]: +++ (+++ is >60%)
- EC50 [4]: < 1000 nM
